Tests used:
hM3Dq = biological target: T1, hM3Dq (Homo sapiens, UniProt P20309, A239G/Y149C); experiment: Chemogenetic manipulation of BG direct pathway in mice with hM3Dq: rotations, nigral c-Fos; assay type: in vivo; conditions: for c-Fos+ cells in the SNr: AAV8R12-G88P3-HA-hM3Dq; for rotation behavior (FIG. 6C), mean±SEM: control vector AAV8R12-G88P3-EYFP, n=5, no effect
T1 construct: expressed in transfected cells; host or cells: neurons of C57BL/6J mice or of macaques, transduced in vivo by nigral AAV8R12-G88P3-HA-hM3Dq
Procedure: Mice were anesthetized with sodium pentobarbital (Nembutal; 80 mg/kg, i.p.), and then placed into a stereotaxic device (KOPF). Eye cream was applied on both corneas to avoid dehydration. The skull above the targeted areas was thinned with a dental drill and carefully removed. Injections were conducted with a 10 μL syringe connected to a 33-Gauge needle (Neuros; Hamilton), using a microsyringe pump (Legato 130, KD Scientific). A total volume of 200 nL virus was injected into the SNr at a speed of 20 nL/min. The coordinates for the SNr were 3.4 mm posterior, 1.3 mm lateral, 4.8 mm ventral to the bregma.
Mice that were used in the behavioral experiments were then implanted with guide cannulas (KOPF) unilaterally aiming at the dorsomedial striatum (0.5 mm anterior, 1.5 mm lateral, 3.5 mm ventral to the bregma). The cannulas were fixed to the skull with dental cement. Stainless steel obturators were inserted into the guide cannulas and were replaced every other day to maintain the patency until infusions were made. Mice were allowed to recover from the surgery for at least 3 weeks before further studies.
Labeling specificity of the retrograde AAV tracers was examined. […] To explore the functional features of retrograde AAV-labeled cells, AAV8R12-G88P3-HA-hM3Dq, which enables neuronal excitation upon clozapine N-oxide (CNO) administration, were injected into the right SNr of C57BL/6J mice. […] Based on the observed infection patterns of retrograde AAV, it was reasoned that the ipsiversive rotations were a consequence of the activation of the right SNr, which is a major inhibitory output center of the BG and was labeled by the locally injected AAV.
Mice were individually handled for 10-20 seconds per day for at least 5 days to habituate them to the experimenter. The open field test was conducted in a test apparatus (50 cm×50 cm×50 cm) with an HD digital camera (Sony) positioned above the arena. On day one, mice were habituated to the apparatus for 10 minutes. On day 2, mice were administrated saline (0.1 mL i.p. or 200 nL intracranially [i.e.] through the guide cannulas). On day 3, mice were administrated with Clozapine-N-oxide (CNO, Hello Bio, HB1807; 0.3 mg/kg i.p. or 200 nL at 100 μM i.e.). All behavioral tests were conducted 30 minutes after injection. During the test, mice were allowed to freely explore the apparatus for 10 minutes. The behavioral data were analyzed with ANY-maze software (Stoelting Co.).

[1] = Locomotion test in naïve macaques (no viral injection); assay type: in vivo; conditions: naive macaques, n=3, not significant

T1 sequence (P20309 whole entry Y149C/A239G): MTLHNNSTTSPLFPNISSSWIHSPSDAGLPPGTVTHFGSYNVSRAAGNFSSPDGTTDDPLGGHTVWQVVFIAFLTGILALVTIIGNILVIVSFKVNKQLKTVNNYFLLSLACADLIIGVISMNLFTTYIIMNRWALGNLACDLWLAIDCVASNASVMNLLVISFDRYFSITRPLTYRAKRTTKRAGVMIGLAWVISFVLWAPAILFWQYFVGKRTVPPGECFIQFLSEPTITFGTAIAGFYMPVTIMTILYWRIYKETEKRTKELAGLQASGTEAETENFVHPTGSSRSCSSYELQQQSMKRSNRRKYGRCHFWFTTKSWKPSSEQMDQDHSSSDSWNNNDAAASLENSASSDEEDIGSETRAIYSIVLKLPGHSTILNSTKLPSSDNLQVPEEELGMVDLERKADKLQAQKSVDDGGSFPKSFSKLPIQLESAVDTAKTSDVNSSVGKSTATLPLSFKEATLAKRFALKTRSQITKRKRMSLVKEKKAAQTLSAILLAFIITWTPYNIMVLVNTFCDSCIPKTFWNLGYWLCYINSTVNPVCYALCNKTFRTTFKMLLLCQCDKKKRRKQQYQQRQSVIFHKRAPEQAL

C[N+]1([O-])CCN(C2=Nc3cc(Cl)ccc3Nc3ccccc32)CC1 [CNO, Clozapine-N-oxide]
rotations (FIG. 6A), mean±SEM; CNO induced ipsiversive rotations (hM3Dq; AAV8R12-G88P3-HA-hM3Dq nigral, CNO i.p., saline 45.25±4.128, n=8): 87.84±4.666
rotations (FIG. 6A), mean±SEM; CNO induced contraversive rotations (hM3Dq; AAV8R12-G88P3-HA-hM3Dq nigral, CNO intracranial into dorsomedial striatum, saline 49.63±5.879, n=8): 15.08±3.435
c-Fos+ cells in the SNr (hM3Dq; intracranial CNO infusion): No significant changes in the number of nigral c-Fos+ cells
c-Fos+ cells in the SNr (hM3Dq; intraperitoneal CNO): significant increase in c-Fos+ cells in the right SNr
rotation behavior (FIG. 6C), mean±SEM (hM3Dq; CNO i.p., saline 47.08±10.5): 44.72±10.89
rotation behavior (FIG. 6C), mean±SEM (hM3Dq; CNO intracranial, saline 54.22±8.766): 61.39±5.774
percentage of contraversive and ipsiversive rotation (FIG. 11C), mean±SEM ([1]; saline 0.767±0.4296): 0.8384±0.4152
speed of contraversive rotations (FIG. 11G), mean±SEM ([1]; saline 39.07±5.889): 39.63±7.092
speed of ipsiversive rotations (FIG. 11H), mean±SEM ([1]; saline 41.49±3.96): 42.79±4.705
total distance (FIG. 11F), mean±SEM ([1]; saline 53.12±15.3): 59.48±18.65
time spending in the higher portion of the observing cages (FIG. 11D), mean±SEM ([1]; saline 55.73±2.64): 60.43±4.542
immobile time (FIG. 11E), mean±SEM ([1]; saline 149.9±21.61): 149.8±22.65

Reference: patent US20250382346A1, “NEURONAL PROMOTERS AND USES THEREOF” (priority 2023, published 2025)
